Reference: patent publication US8492429B2, “Combination of IAP inhibitors and FLT3 inhibitors” (Novartis AG, priority 2006, dated 2013)

Tested on: Ba/F3-FLT3-ITD cells
Test: Proliferation of cells cultured in the presence and absence of WEHI (IL-3)
Format: cell-based, murine
Details: WEHI as source of IL-3

CNC(C)C(=O)NC(C(=O)N1CCC2CCN(CCc3ccccc3)CC21)C1CCCCC1 (stereo not shown) [LBW242]
Inhibition of cellular proliferation in the presence and absence of IL-3: inhibits proliferation of Ba/F3-FLT3-ITD cells in both the absence, as well as the presence of IL-3
